Measurements published in ChEMBL document CHEMBL3885861, “Open TG-GATES”.

Species: Rattus norvegicus
Assay: Open TG-GATES - Regimen: Daily Repeat
Type: toxicity, organism-based, Sprague-Dawley
Parameters: regimen Daily Repeat, gender Male, age 6 weeks
Conditions: in vivo, po, 0 mg/kg, route gavage, dose level Control; for APTT / Bas / Eos / Fbg / Hb / Ht / Lym / MCH / MCHC / MCV / Mono / Neu / PT / Plat / RBC / Ret / WBC: tissue Blood; for KIDNEY_L / KIDNEY_R / KIDNEY_TOTAL: tissue Kidney; for LIVER: tissue Liver; for A/G / ALP / ALT / AST / BUN / CRE / Ca / Cl / DBIL / GLC / IP / K / LDH / Na / PL / RALB / TBIL / TC / TG / TP / gamma-GTP: tissue Plasma

CN(C/C=C/C#CC(C)(C)C)Cc1cccc2ccccc12 [TERBINAFINE]
TERMINAL_BW (72 h, time 3 day): 243.5 g | APTT (72 h, time 3 day): 18.4 s | Bas (72 h, time 3 day): 0.8% | Eos (72 h, time 3 day): 1% | Fbg (72 h, time 3 day): 227.8 mg/dL | Hb (72 h, time 3 day): 13.5 g/dL | Ht (72 h, time 3 day): 39.9% | Lym (72 h, time 3 day): 76% | MCH (72 h, time 3 day): 21.5 pg | MCHC (72 h, time 3 day): 33.8% | MCV (72 h, time 3 day): 63.4 fL | Mono (72 h, time 3 day): 3% | Neu (72 h, time 3 day): 19.2% | PT (72 h, time 3 day): 11.8 s | Plat (72 h, time 3 day): 117.2 x10_4/uL | RBC (72 h, time 3 day): 629 x10_4/ul | Ret (72 h, time 3 day): 5.9% | WBC (72 h, time 3 day): 104.3 x10_2/uL | KIDNEY_L (72 h, time 3 day): 1.1 g | KIDNEY_R (72 h, time 3 day): 1.1 g | KIDNEY_TOTAL (72 h, time 3 day): 2.2 g | LIVER (72 h, time 3 day): 11.8 g | A/G (72 h, time 3 day): 1.6 | ALP (72 h, time 3 day): 804.6 IU/L | ALT (72 h, time 3 day): 34.2 IU/L | AST (72 h, time 3 day): 66.8 IU/L | BUN (72 h, time 3 day): 14.4 mg/dL | CRE (72 h, time 3 day): 0.4 mg/dL | Ca (72 h, time 3 day): 10.8 mg/dL | Cl (72 h, time 3 day): 103.4 meq/L | DBIL (72 h, time 3 day): 0.098 mg/dL | GLC (72 h, time 3 day): 192.8 mg/dL | IP (72 h, time 3 day): 7.3 mg/dL | K (72 h, time 3 day): 4.2 meq/L | LDH (72 h, time 3 day): 191.8 IU/L | Na (72 h, time 3 day): 141.6 meq/L | PL (72 h, time 3 day): 147.6 mg/dL | RALB (72 h, time 3 day): 3.5 g/dL | TBIL (72 h, time 3 day): 0.2 mg/dL | TC (72 h, time 3 day): 74.6 mg/dL | TG (72 h, time 3 day): 99.2 mg/dL | TP (72 h, time 3 day): 5.6 g/dL | gamma-GTP (72 h, time 3 day): 2 IU/L | TERMINAL_BW ([…], time 7 day): 279 g | TERMINAL_BW ([…], time 14 day): 323.8 g | TERMINAL_BW ([…], time 28 day): 389.8 g | APTT ([…], time 7 day): 18.7 s | Bas ([…], time 7 day): 1% | Eos ([…], time 7 day): 1% | Fbg ([…], time 7 day): 236 mg/dL | Hb ([…], time 7 day): 13.9 g/dL | Ht ([…], time 7 day): 41% | Lym ([…], time 7 day): 79.6% | MCH ([…], time 7 day): 20.8 pg | MCHC ([…], time 7 day): 33.8% | MCV ([…], time 7 day): 61.4 fL | Mono ([…], time 7 day): 2.8% | Neu ([…], time 7 day): 15.6% | PT ([…], time 7 day): 11.7 s | Plat ([…], time 7 day): 121.9 x10_4/uL | RBC ([…], time 7 day): 669.2 x10_4/ul | Ret ([…], time 7 day): 5.2% | WBC ([…], time 7 day): 118.9 x10_2/uL | APTT ([…], time 14 day): 19.6 s | Bas ([…], time 14 day): 1% | Eos ([…], time 14 day): 0.8% | Fbg ([…], time 14 day): 220.4 mg/dL | Hb ([…], time 14 day): 14.7 g/dL | Ht ([…], time 14 day): 43.1% | Lym ([…], time 14 day): 84.2% | MCH ([…], time 14 day): 20.1 pg | MCHC ([…], time 14 day): 34.1% | MCV ([…], time 14 day): 59.1 fL | Mono ([…], time 14 day): 2.2% | Neu ([…], time 14 day): 12.2% | PT ([…], time 14 day): 11.5 s | Plat ([…], time 14 day): 109.6 x10_4/uL | RBC ([…], time 14 day): 729.8 x10_4/ul | Ret ([…], time 14 day): 4% | WBC ([…], time 14 day): 106.5 x10_2/uL | APTT ([…], time 28 day): 20 s | Bas ([…], time 28 day): 1% | Eos ([…], time 28 day): 1.2% | Fbg ([…], time 28 day): 230.6 mg/dL | Hb ([…], time 28 day): 15.5 g/dL | Ht ([…], time 28 day): 43.8% | Lym ([…], time 28 day): 80% | MCH ([…], time 28 day): 20.4 pg | MCHC ([…], time 28 day): 35.4% | MCV ([…], time 28 day): 57.8 fL | Mono ([…], time 28 day): 2.4% | Neu ([…], time 28 day): 15.8% | PT ([…], time 28 day): 12 s | Plat ([…], time 28 day): 116.1 x10_4/uL | RBC ([…], time 28 day): 757.6 x10_4/ul | Ret ([…], time 28 day): 2.5% | WBC ([…], time 28 day): 135.2 x10_2/uL | KIDNEY_L ([…], time 7 day): 1.2 g | KIDNEY_R ([…], time 7 day): 1.2 g | KIDNEY_TOTAL ([…], time 7 day): 2.5 g | KIDNEY_L ([…], time 14 day): 1.2 g | KIDNEY_R ([…], time 14 day): 1.2 g | KIDNEY_TOTAL ([…], time 14 day): 2.5 g | KIDNEY_L ([…], time 28 day): 1.4 g | KIDNEY_R ([…], time 28 day): 1.4 g | KIDNEY_TOTAL ([…], time 28 day): 2.8 g | LIVER ([…], time 7 day): 13.3 g | LIVER ([…], time 14 day): 13.3 g | LIVER ([…], time 28 day): 15.6 g | A/G ([…], time 7 day): 1.5 | ALP ([…], time 7 day): 874.6 IU/L | ALT ([…], time 7 day): 33.6 IU/L | AST ([…], time 7 day): 68.2 IU/L | BUN ([…], time 7 day): 15.4 mg/dL | CRE ([…], time 7 day): 0.4 mg/dL | Ca ([…], time 7 day): 10.7 mg/dL | Cl ([…], time 7 day): 102.8 meq/L | DBIL ([…], time 7 day): 0.094 mg/dL | GLC ([…], time 7 day): 201.8 mg/dL | IP ([…], time 7 day): 7.8 mg/dL | K ([…], time 7 day): 4.5 meq/L | LDH ([…], time 7 day): 212.4 IU/L | Na ([…], time 7 day): 141.8 meq/L | PL ([…], time 7 day): 140.2 mg/dL | RALB ([…], time 7 day): 3.5 g/dL | TBIL ([…], time 7 day): 0.1 mg/dL | TC ([…], time 7 day): 69.4 mg/dL | TG ([…], time 7 day): 95.8 mg/dL | TP ([…], time 7 day): 5.8 g/dL | gamma-GTP ([…], time 7 day): 0.8 IU/L | A/G ([…], time 14 day): 1.4 | ALP ([…], time 14 day): 734.4 IU/L | ALT ([…], time 14 day): 34.8 IU/L | AST ([…], time 14 day): 67.2 IU/L | BUN ([…], time 14 day): 16 mg/dL | CRE ([…], time 14 day): 0.4 mg/dL | Ca ([…], time 14 day): 10.6 mg/dL | Cl ([…], time 14 day): 105 meq/L | DBIL ([…], time 14 day): 0.1 mg/dL | GLC ([…], time 14 day): 208.4 mg/dL | IP ([…], time 14 day): 7.2 mg/dL | K ([…], time 14 day): 3.7 meq/L | LDH ([…], time 14 day): 188.8 IU/L | Na ([…], time 14 day): 142.8 meq/L | PL ([…], time 14 day): 132.8 mg/dL | RALB ([…], time 14 day): 3.4 g/dL | TBIL ([…], time 14 day): 0.2 mg/dL | TC ([…], time 14 day): 63.6 mg/dL | TG ([…], time 14 day): 108 mg/dL | TP ([…], time 14 day): 5.8 g/dL | gamma-GTP ([…], time 14 day): 1 IU/L | A/G ([…], time 28 day): 1.3 | ALP ([…], time 28 day): 719.6 IU/L | ALT ([…], time 28 day): 33.8 IU/L | AST ([…], time 28 day): 65.8 IU/L | BUN ([…], time 28 day): 17.6 mg/dL | CRE ([…], time 28 day): 0.5 mg/dL | Ca ([…], time 28 day): 10.5 mg/dL | Cl ([…], time 28 day): 104.4 meq/L | DBIL ([…], time 28 day): 0.092 mg/dL | GLC ([…], time 28 day): 226.4 mg/dL | IP ([…], time 28 day): 6.9 mg/dL | K ([…], time 28 day): 4 meq/L | LDH ([…], time 28 day): 224.4 IU/L | Na ([…], time 28 day): 141.8 meq/L | PL ([…], time 28 day): 129.2 mg/dL | RALB ([…], time 28 day): 3.5 g/dL | TBIL ([…], time 28 day): 0.2 mg/dL | TC ([…], time 28 day): 62.6 mg/dL | TG ([…], time 28 day): 110.2 mg/dL | TP ([…], time 28 day): 6 g/dL | gamma-GTP ([…], time 28 day): 1.4 IU/L
